Earlier results as cited in patent publication US20070099940A1, “Pth agonists” (priority 2004, published 2007).

System: fracture incidence
Details: daily subcutaneous injection for up to 2 years, postmenopausal women

CC[C@H](C)[C@H](NC(=O)[C@H](CCC(=O)O)NC(=O)[C@H](CO)NC(=O)[C@@H](NC(=O)[C@@H](N)CO)C(C)C)C(=O)N[C@@H](CCC(N)=O)C(=O)N[C@@H](CC(C)C)C(=O)N[C@@H](CCSC)C(=O)N[C@@H](Cc1cnc[nH]1)C(=O)N[C@@H](CC(N)=O)C(=O)N[C@@H](CC(C)C)C(=O)NCC(=O)N[C@@H](CCCCN)C(=O)N[C@@H](Cc1cnc[nH]1)C(=O)N[C@@H](CC(C)C)C(=O)N[C@@H](CC(N)=O)C(=O)N[C@@H](CO)C(=O)N[C@@H](CCSC)C(=O)N[C@@H](CCC(=O)O)C(=O)N[C@@H](CCCN=C(N)N)C(=O)N[C@H](C(=O)N[C@@H](CCC(=O)O)C(=O)N[C@@H](Cc1c[nH]c2ccccc12)C(=O)N[C@@H](CC(C)C)C(=O)N[C@@H](CCCN=C(N)N)C(=O)N[C@@H](CCCCN)C(=O)N[C@@H](CCCCN)C(=O)N[C@@H](CC(C)C)C(=O)N[C@@H](CCC(N)=O)C(=O)N[C@@H](CC(=O)O)C(=O)N[C@H](C(=O)N[C@@H](Cc1cnc[nH]1)C(=O)N[C@@H](CC(N)=O)C(=O)N[C@@H](Cc1ccccc1)C(=O)O)C(C)C)C(C)C [PTH(1-34)]
reduction of fracture incidence at non-vertebral sites: 40%
reduction of fracture incidence at the spine: 65%
